Reference: US5118682A, “p-Hydroxy phenone derivatives and the use thereof” (BASF Aktiengesellschaft, priority 1988, dated 1992)
Counter-ions that a name gives are not always drawn.

Experiments:
[1] = tested on: QT interval; experiment: class III antiarrhythmic action in guinea-pigs after intravenous administration (increase in QT interval, ECG); format: in vivo, guinea-pigs (Pirbright white); settings: i.v.; for Rel. action ED20 (D-sotalol)/ED20 (example): guinea-pigs, potency relative to D-sotalol = 1; for ED20: Cavia porcellus, iv, read-out: Increase in QT interval ED 20%
Protocol: The experimental animals are male and female Pirbright white guinea-pigs weighing from 300 to 500 g. They are anaesthetized with 1.5 g/kg urethane i.p. The substances are administered intravenously. The ECG conduction times and the heart rate are measured from a recording from extremity lead II. […] The criterion of a class III action is an increase in the QT interval compared with the values before administration of the substance. An increase in PQ and a large decrease in the heart rate serve as exclusion criteria.

[2] = tested on: arrhythmias which are otherwise resistant to therapy, especially reentry arrhythmias; settings: Circulation 68 (1983); Am. Heart J. 109 (1985); J. Clin. Pharmacol. 27 (1987); cited from earlier work
[3] = anaesthetized guinea-pigs (urethane 1.5 g/kg i.p.), ECG extremity lead II, 4 to 6 animals per dose, dose for 20% increase in QT interval, calculated from log dose-response

Compound | Increase in QT interval ED 20% [1, 3] | Rel. action ED20 (D-sotalol)/ED20 (example) [1] | ED20 [1, 3] | therapeutic advantage of class III antiarrhythmics reported in the literature [2]
3',4'-Dimethyl-4'-(2-(1-pyrrolidinyl)ethoxy)-4-methoxychalcone fumarate [Example 24] | 0.95 mg/kg | 3.8 | – | –
CC(C)NCC(O)c1ccc(NS(C)(=O)=O)cc1 (single isomer, unassigned) [D-sotalol, reference compound] | – | – | 3.6 mg/kg | acting against arrhythmias which are otherwise resistant to therapy
Cc1ccccc1/C=C/C(=O)c1cc(C)c(OCCN2CCCC2)c(C)c1 [Example 1, 3',5'-Dimethyl-4,-(2-(1-pyrrolidinyl)ethoxy)-2-methylchalcone tosylate] | – | 4.9 | 0.74 mg/kg | –
Cc1ccccc1/C=C/C(=O)c1cc(C)c(OCCN2CCCCC2)c(C)c1.O=C(O)/C=C/C(=O)O [Example 2, 3',5'-Dimethyl-4'-(2-(1-piperidinyl)ethoxy)-2-methylchalcone fumarate] | – | 4.7 | 0.76 mg/kg | –
CCN(CC)CCOc1c(C)cc(C(=O)/C=C/c2ccccc2C)cc1C.O=C(O)/C=C/C(=O)O [Example 3, 4'-(2-Diethylaminoethoxy)-3',5'-dimethyl-2-methylchalcone fumarate] | – | 5.5 | 0.65 mg/kg | –
Cc1ccccc1/C=C/C(=O)c1cc(C)c(OCCCN2CCCC2)c(C)c1.O=C(O)/C=C/C(=O)O [Example 4, 3',5'-Dimethyl-4'-(3-(1-pyrrolidinyl)propoxy)-2-methylchalcon fumarate] | – | 4.0 | 0.89 mg/kg | –
CCN(CC)CCOc1c(C)cc(C(=O)Cc2ccc(OC)cc2)cc1C [Example 10, 4'-(2-Diethylaminoethoxy)-3',5'-dimethyl-4-methoxydeoxybenzoin] | – | 2.7 | 1.31 mg/kg | –
CCc1ccccc1C=CC(=O)c1cc(C)c(OCCN2CCCC2)c(C)c1 [Example 12, 3',5'-Dimethyl-4,-(2-(1-pyrrolidinyl)ethoxy)-2-ethylchalcone fumarate] | – | 4.9 | 0.74 mg/kg | –
COc1ccccc1/C=C/C(=O)c1cc(C)c(OCCN2CCCC2)c(C)c1.O=C(O)/C=C/C(=O)O [Example 13, 3',5'-Dimethyl-4'-(2-(1-pyrrolidinyl)ethoxy)-2-methoxychalcone fumarate] | – | 5.4 | 0.67 mg/kg | –
COc1ccc(C=CC(=O)c2cc(C)c(OCCN3CCCC3)c(C)c2)c(C)c1 [Example 15, 3',5'-Dimethyl-4'-(2-(1-pyrrolidinyl)ethoxy)-4-methoxy-2-methylchalconeoxalate] | – | 2.4 | 1.5 mg/kg | –
COc1ccccc1/C=C/C(=O)c1cc(C)c(OCCN2CCCCC2)c(C)c1.Cl [Example 17, 3',5'-Dimethyl-4'-(2-(1-piperidinyl)ethoxy)-2-methoxychalcone hydrochloride] | – | 2.1 | 1.69 mg/kg | –
CCc1ccccc1C=CC(=O)c1cc(C)c(OCCN2CCOCC2)c(C)c1 [Example 18, 3',5'-Dimethyl-4'-(2-(1-morpholinyl)ethoxy)-2-ethylchalcone hydrochloride] | – | 2.4 | 1.5 mg/kg | –
COc1ccc(/C=C/C(=O)c2cc(C)c(OCCN3CCCCC3)c(C)c2)c(C)c1.O=C(O)/C=C/C(=O)O [Example 20, 3',5'-Dimethyl-4'-(2-(1-piperidinyl)ethoxy)-4-methoxy-2-methylchalcone fumarate] | – | 4.9 | 0.73 mg/kg | –
Cc1ccccc1CCC(=O)c1cc(C)c(OCCN2CCCC2)c(C)c1 [Example 25, 3,5-Dimethyl-4-(2-(1-pyrrolidinyl)ethoxy)-3'-(2-tolyl)-propiophenone fumarate] | – | 4.6 | 0.79 mg/kg | –
COc1ccccc1CCC(=O)c1cc(C)c(OCCN2CCCCC2)c(C)c1 [Example 27, 3,5-Dimethyl-3'-(2-methoxyphenyl)-4-(2-(piperidinyl)ethoxy)propiophenone fumarate] | – | 3 | 1.2 mg/kg | –
CCc1ccccc1CCC(=O)c1cc(C)c(OCCN2CCCCC2)c(C)c1 [Example 32, 3,5-Dimethyl-3'-(2-ethylphenyl)-4-(2-(1-piperidinyl)ethoxy)propiophenone f umarate] | – | 2.2 | 1.62 mg/kg | –
CCCCc1oc2ccccc2c1C(=O)c1cc(I)c(OCCN(CC)CC)c(I)c1 [amiodarone] | – | – | – | acting against arrhythmias which are otherwise resistant to therapy
